Reference: patent US10039795B2, “Codon optimized recombinant phage and methods of using same” (priority 2014, dated 2018)
Where two headings read alike, the source gives them in different places.

Experiments:
Assay type in all cases: cell-based
[1] = test system: stressed bacterial cells (Listeria); conditions: for effect on infection rate or enzymatic activity: antifungal agent added to base medium
Description: Media were screened for the ability to support high infection rate and high signal intensity following infection with phage encoding a luciferase marker. Bacterial cells were purposefully stressed by way of drying for 18 hours on a stainless steel table, followed by re-suspension in brain-heart infusion medium (BHI) for 30 minutes. The recovered cells were then infected with phage containing a luciferase marker for 6 hours followed by testing of the enzymatic activity using unpurified phage lysate and NanoLuc reagent.
BHI and TSB media were further titrated to assess whether there was an increase in RLU at different concentrations of base media.
Select components were added to the media in order to remedy known stressors to cells, and to reduce the possibility for other chemicals interfering with the test results. To this end, lithium chloride was added at defined concentrations to the selected 1×TSB base medium, followed by infecting the cells with a luciferase containing phage, and lastly by assaying the RLU detectable as a function of the percentage of lithium chloride added to the media. Lithium chloride was selected as an additive in order to overcome, prevent or limit growth of competing biologicals. […] (See FIG. 11).
Components selected to overcome cell starvation and oxidative stress, glucose and yeast extract, respectively, were titrated in 1×TSB, followed by infection of the bacteria with luciferase containing phage, and lastly by assaying the RLU detectable as a function of the percentage of either glucose or yeast extract.
Antifungal agents were also added to the base medium and tested in order to determine whether there is a decrease in RLU activity, either as a result of loss of enzyme activity or because of reduced infection ability. The anti-fungal agents tested included cycloheximide solution in DMSO.
The effect of divalent cations added to Formulation-1 was assessed. MgSO4 or CaCl2 was added to Formulation-1, followed by infection of bacteria with luciferase encoding phage, and assessment of resultant RLU.
The resultant formulation that incorporates all of the components of Formulation-1A, with the addition of HEPES, is herein referred to as Formulation-2 or as NIB-12.

Listeria = test system: Listeria
[2] = test system: bacteria exposed to luciferase encoding phage; test: Phage infection and enzyme activity across media formulations (RLU); conditions: comparison across media formulations and additives
Description: A systematic comparison of RLU values as a function of additive component was performed on various media formulations. (See FIG. 15). The effects of different additives on both enzymatic activity, as well as infection ability, was measured and compared by way of assessing RLU across the different conditions.

1893 cell-type = test: Sanitizer neutralization assay, phage infection step; conditions: added to NIB-14; 2 mM sodium metabisulfite or 0.05% sodium thiosulfate
Description: Following the 30 minute incubation period, the luciferase marker containing phage was added in BHI medium, and the samples were further allowed to incubate for an additional 3 hours at 30° C. The enzyme was then detected by the addition of the NanoGlo luciferin substrate and luminescence measurement. […] Another variant of this assay involved the direct incubation of the sterilization chemical with the NanoGlo luciferin substrate in the absence of either cells, phage or enzyme.

[3] = test system: bacterial cells (Listeria); test: RLU after phage infection in the presence of increasing quaternary ammonium salts; conditions: additive in Listeria Growth Broth
Text: Bacterial cells were exposed to luciferase encoding phage in the following buffers, Listeria growth broth, Listeria growth broth with TWEEN®-80, or to Listeria growth broth with the addition of both TWEEN®-80 and lecithin. The RLU values are shown on the y-axis.
The addition of TWEEN®-80, either alone or in combination with lecithin, to the Formulation-2 (NIB-12) medium allowed for protection of the samples from interference by quaternary ammonium salts. (See FIG. 14). […] In this case, there was a sustained, detectable RLU in the presence of up to 62.5 ppm quaternary ammonium salts. The amount of resistance to quaternary ammonium salts was further increased through the addition of both lecithin and TWEEN®-80. With the addition of both reagents to Listeria Growth Broth, there was detectable RLU up to 125 ppm quaternary ammonium salts. Another preferred embodiment of the media contains 1.5% of TWEEN®-80 and 0.22% of lecithin.

[4] = component of aqueous solution (infection buffer)

Molecule	Effect on Listeria Detection (Listeria; [4])	also measured
O=S(=O)([O-])[O-].[Mg+2] [Magnesium sulphate]	positive	RLU activity on addition of divalent cation ([1]; added to Formulation-1, in comparison to CaCl2): marked increase; infection ability (RLU) [2]: large impact in increasing infection ability
CO[C@@]1(NC(=O)C(C(=O)O)c2ccc(O)cc2)C(=O)N2C(C(=O)O)=C(CSc3nnnn3C)CO[C@@H]21 (stereo partly drawn) [Moxalactam, reference compound]	neutral	
Acriflavin	negative	
Triton X-100	negative	
O=S(=O)(O)CCN1CCN(CCO)CC1 [HEPES, pH 7.4, HEPES]	positive	ideal HEPES concentration for high RLU activity ([1]; titrated into Formulation-1A, 3 hour and 6 hour time points): 20 mM
Ferric sulfate	neutral	
Ferric ammonium citrate	neutral	
CC(C)(O/N=C(\C(=O)N[C@@H]1C(=O)N2C(C(=O)[O-])=C(C[n+]3ccccc3)CS[C@H]12)c1csc(N)n1)C(=O)O [Ceftazidime, reference compound]	positive	
[Ca+2].[Cl-].[Cl-] [Calcium chloride]		Effect on Listeria Detection (Listeria): neutral
O=C([O-])CC(O)(CC(=O)[O-])C(=O)[O-].[Na+].[Na+].[Na+] [Sodium citrate]	negative	
Ferric citrate	neutral	
C[C@@H]1C[C@@H]([C@H](O)CC2CC(=O)NC(=O)C2)C(=O)[C@@H](C)C1 [Cycloheximide]	neutral	effect on infection rate or enzymatic activity [1]: Neither cycloheximide nor DMSO resulted in a decrease
O=S(=O)([O-])[O-].[Fe+2] [Ferrous sulphate]	negative	
O=S([O-])([O-])=S.[Na+].[Na+] [Sodium thiosulfate]		Effect on Listeria Detection (Listeria): negative; effect of oxygen scavenger on oxidizing effect of peroxide (1893 cell-type): reduced the oxidizing effect of peroxide
Polysorbate 20	negative	
[Cl-].[Li+] [Lithium chloride]	optimized	additive concentration giving highest RLU / selected on RLU levels ([1]; titrated in 1×TSB, 3 hour and 6 hour assay points): 0.25%

Molecule	Effect on Listeria Detection (Listeria; [4])	also measured
Polysorbate 80	positive	quaternary ammonium salts concentration up to which RLU is detectable [3]: up to 62.5 ppm; infection ability (RLU) [2]: large impact in increasing infection ability
Cc1ncc(C[n+]2csc(CCO)c2C)c(N)n1 [Thiamine]	neutral	
O=C([O-])CC(=O)[O-].[Na+].[Na+] [Sodium malonate]	negative	
O-octophosphorylcholine	negative	
C[S+](C)[O-] [DMSO]		effect on infection rate or enzymatic activity [1]: Neither cycloheximide nor DMSO resulted in a decrease
N[C@@H](CCC(=O)[O-])C(=O)[O-].[Na+].[Na+] [Sodium glutamate]	neutral	
O=S([O-])S(=O)(=O)[O-].[Na+].[Na+] [Sodium metabisulfite]	positive	effect of oxygen scavenger on oxidizing effect of peroxide (1893 cell-type): reduced the oxidizing effect of peroxide
C[N+](C)(C)CCOP(=O)(O)O.[Cl-] [Phosphocholine chloride]	negative	
CC(=O)C(=O)[O-].[Na+] [Sodium pyruvate]	positive	RLU activity on addition of pyruvate ([1]; HEPES titration experiment): further increased RLU activity; infection ability (RLU) [2]: large impact in increasing infection ability
CCn1cc(C(=O)O)c(=O)c2ccc(C)nc21 [Nalidixic acid, reference compound]	positive	
OC[C@H]1O[C@@](CO)(O[C@H]2O[C@H](CO)[C@@H](O)[C@H](O)[C@H]2O)[C@@H](O)[C@@H]1O [Sucrose]	neutral	
O=C([O-])CS.[Na+] [Sodium thioglycollate]	negative	
O=C(O)CCC(=O)C(=O)O [Alpha-ketoglutarate]	negative	
OCC(O)CO [Glycerol]	neutral	
O=S(=O)(O)CCCN1CCOCC1 [MOPS, pH 7.2, MOPS]	positive	
